Source: patent publication US12478629B2, “Use of glucocorticoids for the treatment of epithelial microbial infections of a fluid containing organ with a natural exterior orifice in mammals” (VIRBAC, priority 2018, dated 2025)

Test system: mild clinical mastitis
Experiment: Multicenter clinical field study, intramammary treatment of mild clinical mastitis
Assay type: in vivo, lactating cows and heifers
Experimental: The purpose of this multicenter clinical field study is to evaluate the efficacy and the safety of HCA at a dosage of 20 mg in 10 ml of Vaseline oil based formulation every 12±2 h hours (minimum of one and maximum of four treatments) in the intramammary treatment of mild clinical mastitis in lactating cows; more specifically to assess the efficacy (clinical cure rate) of HCA alone in the treatment of udder inflammation (mild clinical mastitis), under field conditions and to assess the safety and the risk of aggravation or relapses during and after the treatment with HCA alone.
Animals (50 lactating cows and heifers presenting clinical symptoms of mastitis) have been intramammarily treated with one syringe (10 mL) containing 20 mg of HCA at each time point for a minimum of 1 and a maximum of 4 treatments in a 12±2 h interval (each morning or evening milking time, respectively). Depending on the result of the clinical examination and the clinical status classification, the animal has been treated until the animal was classified as clinically cured, failure or the maximum of 4 treatments is reached.
Before the tested treatment, a sample of milk of each animal has been collected to be tested for bacteriology of classical pathogenic bacteria; among the 50 animals, 34 produced a milk containing pathogenic bacteria, no pathogenic bacteria has been detected in the milk of the 16 remaining animals, it can nevertheless not be excluded that those 16 animals were infected by a non-tested pathogenic bacteria.

## CCC(=O)O[C@]1(C(=O)COC(C)=O)CC[C@H]2[C@@H]3CCC4=CC(=O)CC[C@]4(C)[C@H]3[C@@H](O)C[C@@]21C [HCA, hydrocortisone 21-acetate 17α-propionate]
16 animals bacteriologically negative at DO
  animals cured (clinical cure rate): 56.3%
34 animals bacteriologically positive at DO
  animals cured (clinical cure rate): 20.6%
All 50 animals, 20 mg HCA in 10 mL intramammary every 12±2 h, after 3 or 4 administrations
  animals cured (clinical cure rate): 32%
intramammary, 20 mg in 10 mL, 1 to 4 treatments
  adverse effect of the treatment / tolerance: No adverse effect
